Like-named read-outs stand apart in the source and are kept apart here.
How the values were obtained:
aldose reductase (AR) = target: T1, aldose reductase (AR) (Homo sapiens, UniProt P15121); experiment: AR inhibition assay (NADPH absorbance decrease at 340 nm, DL-glyceraldehyde substrate); format: biochemical; conditions: for IC50: mean ± SD (n = 3), NA = no activity
T1 construct: purchased Prospec-TanyTechnogene Ltd. (Israel)
Method: AR was purchased from Prospec-TanyTechnogene Ltd. (Israel). AR activity was evaluated as previously described. Briefly, the reaction mixture was composed of enzyme solution ([…], 20 μL), NADPH (0.104 mmol·L^-1, 50 μL; Italian Roth, Italy), DL-glyceraldehyde (10 mmol·L^-1, 50 μL; Sigma, U.S.), buffer phosphate (0.1 mol·L^-1), and selected concentrations of test compounds. The reaction was initiated by the addition of DL-glyceraldehyde as the substrate, and PBS was used as the blank control. The use of NAPDH, in parallel to AR activity, was monitored at room temperature for 10 min at 40 s intervals at 340 nm in an EnSpire™ Multimode Plate Reader. […] All assays were performed in triplicate.

[1] = target: inducible nitric oxide synthase (iNOS) (Homo sapiens, UniProt P35228); experiment: iNOS inhibition assay (Nitric Oxide Synthase Assay Kit, NO production); format: biochemical; conditions: mean ± SD (n = 3); NA = no activity; read-out: IC50, inhibitory effect on iNOS activity
Method: iNOS produces NO by catalyzing a reaction involving L-Arg and oxygen. Its activity was assessed by monitoring NO production using a Nitric Oxide Synthase Assay Kit (Nanjing Jiancheng Bioengineering Institute, China), which was developed based on the method of Fröhlich et al.. […] All assays were performed in triplicate.

[2] = system: human lens epithelial cells (HLECs; SRA 01/04); experiment: Cell viability (MTT) of HLECs treated with D-galactose; format: cell-based; conditions: for protection of HLECs from apoptosis (concentration not given): D-galactose-induced, tested at 0.1, 0.5, 1.0 μg·mL^-1
Method: Human lens epithelial cells (HLECs; SRA 01/04) were obtained from Dr. Fu Shang, USDA HNRCA at Tufts University, Boston, MA, U.S. and Zhongshan Ophthalmic Center, Sun Yat-sen University, Guangzhou, P. R. China and cultured in minimal essential medium (MEM) supplemented with 20% fetal bovine serum (FBS) and a cocktail of Penicillin-Streptomycin at 37°C in a humid environment containing 5% CO2 [52]. Cells were harvested at 80% confluency by trypsinization, and then fresh culture medium was added to generate single-cell suspensions for use in cell viability assays. HLECs were then seeded in 96-well cell culture grade microplates at a density of 1 × 10^5·mL^-1. After 24 h of incubation, the cells were treated for 72 h with 250 mmol·L^-1 D-galactose with and without test compounds (0.1, 0.5, or 1.0 μg·mL^-1).
Cell viability was assessed using an MTT assay. After the treatments, 20 μL of 5 mg·mL^-1 MTT solution was added to each well, followed by incubation for 4 h at 37°C. The resulting formazan crystals were then dissolved in 150 μL DMSO and absorbance measured at 570 nm using an EnSpire™ Multimode Plate Reader. The results are presented as percentages of cell survival as compared to the untreated control group, and all assays were performed in triplicate.

[3] = read-out: IC50, inhibitory effect on AR activity
[4] = compound at 0.5 μg·mL^-1, 250 mmol·L^-1 D-galactose, 72 h
[5] = compound at 1.0 μg·mL^-1, 250 mmol·L^-1 D-galactose, 72 h
[6] = compound at 0.1 μg·mL^-1, 250 mmol·L^-1 D-galactose, 72 h

Compound: COc1cc(CCc2cc(OC)cc(OC)c2)cc(OC)c1 [Compound 4, 1,2-bis(3,5-dimethoxyphenyl)ethane]
- IC50 (aldose reductase (AR); [3]): 347 ± 3.74 µM
- melting point: 104.6 to 107.9 °C

Compound: Oc1cc(O)cc(CCc2cc(O)cc(O)c2)c1 [Compound 5, 5,5'-(ethane-1,2-diyl)dibenzene-1,3-diol5,5'-(ethane-1,2-diyl)dibenzene-1,3-diol]
- IC50 (aldose reductase (AR); [3]): 288.8 ± 2.16 µM
- IC50 [1]: 432.6 ± 2.37 µM
- protection of HLECs from apoptosis (concentration not given) [2]: protected HLECs from apoptosis
- protection of HLECs from D-galactose-induced apoptosis [2, 4]: protected HLECs from apoptosis
- melting point: 245.9 to 248.1 °C

Compound: CN(C)c1ccc(CCc2cc(O)cc(O)c2)cc1 [Compound 8]
- IC50 (aldose reductase (AR); [3]): 513.4 ± 2.33 µM
- protection of HLECs from apoptosis (concentration not given) [2]: protected HLECs from apoptosis
- protection of HLECs from D-galactose-induced apoptosis [2, 5]: protected HLECs from apoptosis
- melting point: 152.5 to 154.1 °C

Compound: COc1cc(O)cc(CCc2cccc3ccccc23)c1 [Compound 10, 3-methoxy-5-(2-(naphthalen-1-yl)ethyl)phenol]
- IC50 (aldose reductase (AR); [3]): 31.2 ± 1.51 µM
- potency in AR inhibition relative to synthetic gigantol (compound 14f) (aldose reductase (AR); more potent than 14f): 9 fold
- IC50 [1]: 1189 ± 3.31 µM
- cell survival (viability) of HLECs against D-galactose-induced apoptosis ([2]; 250 mmol·L^-1 D-galactose, 72 h, MTT, compounds at 0.1, 0.5 or 1.0 μg·mL^-1, percentage of Con): 72.26%
- protection of HLECs from apoptosis (concentration not given) [2]: protected HLECs from apoptosis
- protection of HLECs from D-galactose-induced apoptosis [2, 4]: protected HLECs from apoptosis
- melting point: 103.9 to 106.7 °C

Compound: COc1cc(CCc2cc(OC)c(O)c(OC)c2)ccc1O [Compound 14a, 4-(4-hydroxy-3-methoxyphenethyl)-2,6-dimethoxyphenol]
- IC50 (aldose reductase (AR); [3]): 17.3 ± 1.72 µM

Compound: COc1cc(CCc2cccc(OC)c2O)ccc1O [Compound 14b, 4-(2-hydroxy-3-methoxyphenethyl)-2-methoxyphenol]
- IC50 (aldose reductase (AR); [3]): 126 ± 1.3 µM
- IC50 [1]: 433.6 ± 4.23 µM
- protection of HLECs from apoptosis (concentration not given) [2]: protected HLECs from apoptosis
- protection of HLECs from D-galactose-induced apoptosis [2, 6]: protected HLECs from apoptosis

Compound: COc1cc(CCc2ccc(O)c(O)c2)ccc1O [Compound 14c, 4-(4-hydroxy-3-methoxyphenethyl)benzene-1,2-diol]
- IC50 (aldose reductase (AR); [3]): 534 ± 5.44 µM

Compound: COc1cc(CCc2ccc(O)c(OC)c2)cc(OC)c1 [Compound 14d, 4-(3,5-dimethoxyphenethyl)-2-methoxyphenol]
- IC50 (aldose reductase (AR); [3]): 39.2 ± 2.13 µM

Compound: COc1cc(CCc2cc(Cl)ccc2O)ccc1O [Compound 14e, 4-chloro-2-(4-hydroxy-3-methoxyphenethyl)phenol]
- IC50 (aldose reductase (AR); [3]): 21.8 ± 5.47 µM

Compound: COc1cc(O)cc(CCc2ccc(O)c(OC)c2)c1 [Compound 14f, 4-[2-(3-hydroxy-5-methoxyphenyl)ethyl]-2-methoxyphenol]
- IC50 (aldose reductase (AR); [3]): 176 ± 3.21 µM
- IC50 [1]: 680.1 ± 3.28 µM

Compound: COc1ccc(CCNCc2ccc(O)cc2)cc1OC [Compound 17b, 4-((3,4-dimethoxyphenethylamino)methyl)phenol]
- IC50 (aldose reductase (AR); IC50, inhibitory effect on AR activity): 174 ± 3.38 µM
- melting point: 116.7 to 118.6 °C

Compound: COc1ccc(CNc2nc3ccccc3s2)c(O)c1 [Compound 17c, 2-((benzo[d]thiazol-2-ylamino)methyl)-5-methoxyphenol]
- IC50 (aldose reductase (AR); [3]): 243 ± 5.67 µM
- protection of HLECs from apoptosis (concentration not given) [2]: protected HLECs from apoptosis
- protection of HLECs from D-galactose-induced apoptosis [2, 6]: protected HLECs from apoptosis
- melting point: 184.3 to 185.7 °C

Compound: Oc1cc(O)cc(CCCc2ccc(F)cc2)c1 [Compound 21, 5-(3-(4-fluorophenyl)propyl)benzene-1,3-diol]
- IC50 (aldose reductase (AR); [3]): 556.3 ± 4.37 µM

Compound: Cc1ccc(S(=O)(=O)Nc2ccc(O)cc2)cc1 [Compound 23, N-(4-hydroxyphenyl)-4-methylbenzenesulfonamide]
- IC50 (aldose reductase (AR); [3]): 5.02 ± 2.57 µM

Compound: COc1ccc(CCNC(=O)Cc2ccc(O)cc2)cc1OC [Compound 25, N-(3,4-dimethoxyphenethyl)-2-(4-hydroxyphenyl)acetamide]
- IC50 (aldose reductase (AR); [3]): 54.4 ± 2.39 µM
- melting point: 151.7 to 153.2 °C

Compound: COc1cc(O)cc(CCc2ccc(O)c(OC)c2)c1 [Extractive gigantol, 4-[2-(3-hydroxy-5-methoxyphenyl)ethyl]-2-methoxyphenol, reference compound]
- IC50 (aldose reductase (AR); [3]): 2517 ± 10.3 µM
- IC50 [1]: 32.2 ± 2.61 µM
- protection of HLECs from apoptosis (concentration not given) [2]: protected HLECs from apoptosis
- protection of HLECs from D-galactose-induced apoptosis [2, 5]: protected HLECs from apoptosis

From publication PMC4627826, “Synthesis and Biological Evaluation of Novel Gigantol Derivatives as Potential Agents in Prevention of Diabetic Cataract” (PLoS ONE, 2015)
